Columns and labels:
VPS4B-CHMP2B interaction = test: Co-immunoprecipitation: disruption of VPS4B-CHMP interaction; assay type: cell-based
Protocol: HEK293T cells were co-transfected with Flag-tagged target protein, HA-tagged source protein, and GFP-tagged peptide or GFP. Cells were lysed 48 h after transfections with radioimmune precipitation assay buffer (50 mM Tris-HCl pH 7.4, 1% Nonidet P-40, 150 mM NaCl, 1 mM EDTA, 10 mM Na3VO4, 10 mM sodium pyrophosphate, 25 mM NaF, 1× protease inhibitor mixture (Sigma)) for 30 min at 4 °C and co-immunoprecipitated with Flag beads (Clontech). The resulting immunocomplexes were analyzed by immunoblot using the appropriate antibodies. Protein samples were separated using 4–20% Mini-PROTEAN Tris-glycine gels (Bio-Rad) transferred to PVDF membranes and blocked in 5% milk containing PBS-Tween-20 (0.1%) for 1 h. PVDF membranes were then incubated with specified primary antibodies followed by incubation with horseradish peroxidase-conjugated secondary antibodies (anti-mouse HRP-linked, Cell Signaling, catalog #7076, 1:5000; anti-rabbit HRP-linked, Cell Signaling, catalog #7074, 1:5000) and detected using enhanced chemiluminescence (GE Healthcare). HA antibodies were obtained from Santa Cruz (catalog #7392, 1:2000), GFP antibodies were purchased from Abcam (catalog #ab290, 1:2000), and Flag antibodies were purchased from Sigma (catalog #A8592, 1:1000).

[1] = tested on: A53T a-syn-mediated cytotoxicity in HEK293 cells; test: Pooled lentiviral 7-mer peptide cytotoxicity screen, A53T a-syn + MG132; assay type: cell-based, human;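 as to Slope Norm Reads: reads normalized to total peptide reads per sample with scalar factor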
From the text: We used a lentiviral library of 50,549 7-mer peptides enriched in PPI motifs[13] on a green fluorescent protein (GFP) scaffold (Fig. 1A). We infected cells in a pooled format and the amino acid sequence of each peptide served as its own barcode. By using a low multiplicity of infection followed by puromycin selection, each infected cell expressed one unique GFP-peptide. We screened for peptides that reduced a-syn-mediated cytotoxicity or a-syn oligomers in parallel (Fig. 1A). To cause cytotoxicity relevant to PD, we induced proteostatic stress in HEK293 cells by inhibiting the proteasome with MG132 and overexpressing human WT a-syn associated with idiopathic PD in one screen or the more toxic mutant A53T a-syn associated with familial PD in a second screen. This combination of a-syn overexpression and pharmacological proteasome inhibition led to death of most cells, with only those that expressed a protective peptide surviving. By extracting genomic DNA from the surviving cells and amplifying the peptide coding sequences, we identified the protective peptides (Fig. 1A). To detect a-syn oligomers, we used a protein fragment complementation assay (PCA) of a-syn oligomerization in HEK293 cells. In this assay, human A53T a-syn was fused to either the C- or N-terminal half of yellow fluorescent protein (YFP). No fluorescence is detectable while a-syn exists in monomers but, when a-syn oligomerizes, the two halves of YFP come in close enough proximity to form a functional, spontaneously fluorescent protein. […] Our screens yielded 10 hits (Table S1). The hit with the most reads (i.e., the most abundant) was the same peptide in all screens: IPIQLKA (named PDpep1) (Table S1). We validated the cytoprotective effects of PDpep1 in HEK293 cells overexpressing WT or A53T a-syn (Figs. 1B, S1A), as well as its ability to reduce WT or A53T a-syn oligomers in a luciferase-based PCA[18]–[20] compared to a scrambled control peptide (Figs. 1C, S1B).
HEK293T cells (ATCC, CRL-3216) were maintained in DMEM supplemented with 10% FBS and 1% pen/strep/glutamine, and the appropriate selection antibiotics when required. Lentiviruses were made in a 15 cm dish format by transfecting packaging cells (HEK293T) with a three-plasmid system (expression vector, psPAX2 and pMD2.G) and using Polyjet DNA transfection reagent (FroggaBio, SL100688.1). Viral transduction of HEK293T cells were performed with a multiplicity of infection (MOI) of 0.3. Infected cells were selected in puromycin-containing medium to eliminate uninfected cells and three aliquots of cells were collected for sampling of the initial (T0) cell population. Cells were treated with MG132 at concentrations of 0, 10, 25, or 50 µM. For the cell viability screen, surviving cells were collected and gDNA was extracted for identification of peptide inhibitors of cell toxicity. For the inhibition of a-syn aggregation screen, a protein fragment complementation assay (PCA) was used by transfecting cells with split YFP-a-syn constructs following stable expression of the peptides. Cells were sorted based on their YFP fluorescence intensities with a FACSVantage SE cell sorter (BD Bioscience) and gDNA was extracted for identification of peptides.
Genomic DNA (gDNA) from peptide expressing cells at different time-points was extracted using QIAamp DNA Blood Mini Kit. PCR amplifications of peptides from gDNA in parallel with the lentiviral plasmid library (naïve library) were performed using indexed Illumina PCR primers to incorporate both the Illumina adapter sequences and indexing sequences. Each 50 μl reaction contained 3.2 μg of template, 2× PCR buffer, 2× enhancer solution, 300 μM each dNTP, 900 nM each of Adapter A (5′-[…]-[…]-3′) and Adapter B (5′-[…]-[…]-3′), 1 mM MgSO4, 3.75 units of Platinum Pfx polymerase, and water to 50 μl. […]

Substance	Effect on VPS4B-CHMP2B interaction (VPS4B-CHMP2B interaction)	Reads 10M MG132 [1]	Reads 25M MG132 [1]	Reads 50M MG132 [1]	Slope Norm Reads [1]	Reads 0M MG132 ([1]; Illumina reads, average Phred >30)
DEEIERQLKALG [PDpep1.3]	inhibits the CHMP2B-VPS4 interaction	–	–	–	–	–
IPIQLKA [PDpep1, initial screen hit peptide IPIQLKA]	–	20	3859	13308	40.54	168

From PMC10115881, “Disrupting the α-synuclein-ESCRT interaction with a peptide inhibitor mitigates neurodegeneration in preclinical models of Parkinson’s disease” (Nature Communications, 2023)
